Tested on: hepatocytes
Test: RNA-seq of hepatocytes treated with Phase III failure compounds
Conditions: hepatocytes
Method: RNA-seq was performed to determine the effects of the compounds on hepatocytes.
Significance was determined by the criteria of FPKM≥0.5, a log 2(fold-change)≥1, and a […].

With `O=P(O)(NCCCl)NCCCl` [Palifosfamide] the “significant modulation of expression of disease genes” value (RNA-seq, q≤0.05, genes in the value or listed in the block) was “significantly (q≤0.05) modulate expression of RMRP and FAM111B”, the “RNA-seq results: A1BG expression” value (gene A1BG) was −0.13 and the “RNA-seq results: AGTR1 expression” value (gene AGTR1) was −0.67. For the same compound, the “RNA-seq results: AGXT expression” value (gene AGXT) was 0.30, the “RNA-seq results: AHI1 expression” value (gene AHI1) was 0.06 and the “RNA-seq results: AMPD3 expression” value (gene AMPD3) was −0.01. The “RNA-seq results: AMT expression” value (gene AMT) was 0.13, the “RNA-seq results: ANGPTL3 expression” value (gene ANGPTL3) was −0.28 and the “RNA-seq results: ANKS4B expression” value (gene ANKS4B) was −0.16. For the same compound, the “RNA-seq results: ANKS6 expression” value (gene ANKS6) was 0.12, the “RNA-seq results: ANPEP expression” value (gene ANPEP) was −0.12 and the “RNA-seq results: AOC2 expression” value (gene AOC2) was 0.34. For the same compound, the “RNA-seq results: APOA2 expression” value (gene APOA2) was −0.53, the “RNA-seq results: APOA5 expression” value (gene APOA5) was 0.00 and the “RNA-seq results: APOB expression” value (gene APOB) was −0.23. For the same compound, the “RNA-seq results: COG5 expression” value (gene COG5) was −0.03, the “RNA-seq results: COG6 expression” value (gene COG6) was 0.08 and the “RNA-seq results: COL1A1 expression” value (gene COL1A1) was 0.48. The “RNA-seq results: COX6A1 expression” value (gene COX6A1) was −0.07, the “RNA-seq results: CP expression” value (gene CP) was 0.16 and the “RNA-seq results: CPS1 expression” value (gene CPS1) was 0.84. For the same compound, the “RNA-seq results: CPT1A expression” value (gene CPT1A) was 1.06, the “RNA-seq results: CPT2 expression” value (gene CPT2) was 0.33 and the “RNA-seq results: CROT expression” value (gene CROT) was −0.69. The “RNA-seq results: CSPP1 expression” value (gene CSPP1) was 0.17, the “RNA-seq results: CTC1 expression” value (gene CTC1) was 0.2 and the “RNA-seq results: CTDSP2 expression” value (gene CTDSP2) was 0.56. For the same compound, the “RNA-seq results: CTH expression” value (gene CTH) was 1.87, the “RNA-seq results: CTNS expression” value (gene CTNS) was 0.42 and the “RNA-seq results: CTSF expression” value (gene CTSF) was 0.68. The “RNA-seq results: CTSK expression” value (gene CTSK) was −0.49, the “RNA-seq results: CYB5A expression” value (gene CYB5A) was 0.43 and the “RNA-seq results: CYB5R3 expression” value (gene CYB5R3) was 0.05. The “RNA-seq results, CYP2B6 expression” value (gene CYP2B6) was 0.03, the “RNA-seq results: CYP2B6 expression” value (gene CYP2B6) was 0.58 and the “RNA-seq results, CYP2C19 expression” value (gene CYP2C19) was 0.12. The “RNA-seq results: CYP2C19 expression” value (gene CYP2C19) was 0.2, the “RNA-seq results, CYP2D6 expression” value (gene CYP2D6) was 0.10 and the “RNA-seq results: CYP2D6 expression” value (gene CYP2D6) was 0.47. The “RNA-seq results, CYP3A4 expression” value (gene CYP3A4) was −0.49, the “RNA-seq results: CYP3A4 expression” value (gene CYP3A4) was 2.11 and the “RNA-seq results, CYP7B1 expression” value (gene CYP7B1) was −0.21. The “RNA-seq results: CYP7B1 expression” value (gene CYP7B1) was 0.28, the “RNA-seq results: CYP27A1 expression” value (gene CYP27A1) was 0.51 and the “RNA-seq results, CYP39A1 expression” value (gene CYP39A1) was −0.43. For the same compound, the “RNA-seq results: CYP39A1 expression” value (gene CYP39A1) was 0.62, the “RNA-seq results: DAO expression” value (gene DAO) was −1.2 and the “RNA-seq results: DBT expression” value (gene DBT) was −0.43. For the same compound, the “RNA-seq results: DCDC2 expression” value (gene DCDC2) was −2.5, the “RNA-seq results: DCXR expression” value (gene DCXR) was −0.23 and the “RNA-seq results: FABP1 expression” value (gene FABP1) was −0.17. The “RNA-seq results: FADD expression” value (gene FADD) was −0.29, the “RNA-seq results: FAM111A expression” value (gene FAM111A) was −0.05 and the “RNA-seq results: FAM111B expression” value (gene FAM111B) was −2.02. The “RNA-seq results: FAN1 expression” value (gene FAN1) was −0.36, the “RNA-seq results: FARS2 expression” value (gene FARS2) was −0.34 and the “RNA-seq results: FASLG expression” value (gene FASLG) was −1.44. For the same compound, the “RNA-seq results: FGA expression” value (gene FGA) was 0.12, the “RNA-seq results: FGD1 expression” value (gene FGD1) was −0.27 and the “RNA-seq results: FGFR2 expression” value (gene FGFR2) was −0.22. For the same compound, the “RNA-seq results: FIG4 expression” value (gene FIG4) was 0.06, the “RNA-seq results: FIS1 expression” value (gene FIS1) was −0.18 and the “RNA-seq results: FTCD expression” value (gene FTCD) was 0.32. The “RNA-seq results: FTH1 expression” value (gene FTH1) was 0.48, the “RNA-seq results: FUCA1 expression” value (gene FUCA1) was 0.24 and the “RNA-seq results: FXN expression” value (gene FXN) was −0.02. For the same compound, the “RNA-seq results: G6PC3 expression” value (gene G6PC3) was −0.25, the “RNA-seq results: G6PC expression” value (gene G6PC) was 3.27 and the “RNA-seq results: G6PD expression” value (gene G6PD) was 0.13. The “RNA-seq results: GALK1 expression” value (gene GALK1) was −0.37, the “RNA-seq results: GALK2 expression” value (gene GALK2) was −0.25 and the “RNA-seq results: GALT expression” value (gene GALT) was 0.41. The “RNA-seq results: GATA6 expression” value (gene GATA6) was 0.11, the “RNA-seq results: GATM expression” value (gene GATM) was −0.46 and the “RNA-seq results: GBA expression” value (gene GBA) was −0.11. For the same compound, the “RNA-seq results: GBE1 expression” value (gene GBE1) was 0.2, the “RNA-seq results: GCH1 expression” value (gene GCH1) was −0.38 and the “RNA-seq results: GCKR expression” value (gene GCKR) was −0.08. The “RNA-seq results: GCLC expression” value (gene GCLC) was 0.14, the “RNA-seq results: GOSH expression” value (gene GOSH) was −0.4 and the “RNA-seq results: RRM2B” value (gene RRM2B) was −0.21. The “RNA-seq results: RSAD1” value (gene RSAD1) was 0.12, the “RNA-seq results: SAMHD1” value (gene SAMHD1) was −0.34 and the “RNA-seq results: SC5D” value (gene SC5D) was −0.37. For the same compound, the “RNA-seq results: SCARB1” value (gene SCARB1) was 0.05, the “RNA-seq results: SCN9A” value (gene SCN9A) was −0.07 and the “RNA-seq results: SDCCAG8” value (gene SDCCAG8) was −0.12. The “RNA-seq results: SEPN1” value (gene SEPN1) was 0.00, the “RNA-seq results: SERAC1” value (gene SERAC1) was −0.07 and the “RNA-seq results: SERPINA1” value (gene SERPINA1) was −0.19. The “RNA-seq results: SERPING1” value (gene SERPING1) was −0.31, the “RNA-seq results: SERPINI1” value (gene SERPINI1) was −0.28 and the “RNA-seq results: SETBP1” value (gene SETBP1) was 0.11. For the same compound, the “RNA-seq results: SFXN4” value (gene SFXN4) was −0.14, the “RNA-seq results: SLC10A1” value (gene SLC10A1) was −0.40 and the “RNA-seq results: SLC10A3” value (gene SLC10A3) was 0.53. The “RNA-seq results: SLC10A5” value (gene SLC10A5) was −0.06, the “RNA-seq results: SLC10A7” value (gene SLC10A7) was −0.46 and the “RNA-seq results: SLC11A2” value (gene SLC11A2) was −0.01. The “RNA-seq results: SLC19A1” value (gene SLC19A1) was −0.10, the “RNA-seq results: SLC19A2” value (gene SLC19A2) was −0.05 and the “RNA-seq results: SLC19A3” value (gene SLC19A3) was −0.26. The “RNA-seq results: SLC22A1” value (gene SLC22A1) was −0.18, the “RNA-seq results: SLC22A5” value (gene SLC22A5) was 0.03 and the “RNA-seq results: SLC25A1” value (gene SLC25A1) was 0.36. For the same compound, the “RNA-seq results: SLC25A10” value (gene SLC25A10) was 0.09, the “RNA-seq results: SLC25A12” value (gene SLC25A12) was 0.10 and the “RNA-seq results: SLC25A13” value (gene SLC25A13) was −0.06. The “RNA-seq results: SLC25A15” value (gene SLC25A15) was 0.04, the “RNA-seq results: SLC25A19” value (gene SLC25A19) was −0.02 and the “RNA-seq results: SLC25A20” value (gene SLC25A20) was −0.21. For the same compound, the “RNA-seq results: SLC25A29” value (gene SLC25A29) was 0.39 and the “RNA-seq results: SLC25A32” value (gene SLC25A32) was −0.19.

Source: patent publication US20210254056A1, “IDENTIFICATION AND TARGETED MODULATION OF GENE SIGNALING NETWORKS” (CAMP4 THERAPEUTICS CORPORATION, priority 2017, published 2021)
